The target in the first test is PKC θ (Homo sapiens, UniProt Q04759). Kind of test: PKC θ enzyme inhibition test (TR-FRET). Type of test: biochemical. The conditions noted are these: 1 μM test compound, well without enzyme = 100% inhibition. The method, then:
PKC θ enzyme inhibitory activities of test compounds were measured by TR-FRET method. First, a test compound diluted with assay buffer (20 mM Tris-HCl (pH 7.5), 5 mM MgAcetate, 0.1 mM CaCl2, 1 mM DTT, 0.01% Tween20, 0.05% BSA, 10% PKC Activator (Millipore)) was added to 384-well plate at 2 μL each. Then, a solution diluted with assay buffer to […] of PKC θ and 1.2 μM of a fluorescence-labeled peptide substrate (Fluorescein-PKC Substrate, Life Technologies) was added by 2 μL. Then, enzyme reaction was started by adding 2 μL each of ATP solution prepared with assay buffer to 60 μM. After the reaction at room temperature for 1 hr, TR-FRET Dilution Buffer (Life Technologies) prepared to 20 mM EDTA, 0.6 nM terbium-labeled anti-phosphoserine antibody (Life Technologies) was added by 6 μL. After standing at room temperature for 1 hr, fluorescence intensity (excitation wavelength 340 nm, fluorescence wavelength 520 nm, delay time 100 microseconds) was measured by a plate reader, Envision (PerkinElmer). The inhibitory activity of each compound was calculated as relative activity value where fluorescence intensity of a well without enzyme is considered as 100% inhibition.
Chain of PKC θ (Q04759 whole entry): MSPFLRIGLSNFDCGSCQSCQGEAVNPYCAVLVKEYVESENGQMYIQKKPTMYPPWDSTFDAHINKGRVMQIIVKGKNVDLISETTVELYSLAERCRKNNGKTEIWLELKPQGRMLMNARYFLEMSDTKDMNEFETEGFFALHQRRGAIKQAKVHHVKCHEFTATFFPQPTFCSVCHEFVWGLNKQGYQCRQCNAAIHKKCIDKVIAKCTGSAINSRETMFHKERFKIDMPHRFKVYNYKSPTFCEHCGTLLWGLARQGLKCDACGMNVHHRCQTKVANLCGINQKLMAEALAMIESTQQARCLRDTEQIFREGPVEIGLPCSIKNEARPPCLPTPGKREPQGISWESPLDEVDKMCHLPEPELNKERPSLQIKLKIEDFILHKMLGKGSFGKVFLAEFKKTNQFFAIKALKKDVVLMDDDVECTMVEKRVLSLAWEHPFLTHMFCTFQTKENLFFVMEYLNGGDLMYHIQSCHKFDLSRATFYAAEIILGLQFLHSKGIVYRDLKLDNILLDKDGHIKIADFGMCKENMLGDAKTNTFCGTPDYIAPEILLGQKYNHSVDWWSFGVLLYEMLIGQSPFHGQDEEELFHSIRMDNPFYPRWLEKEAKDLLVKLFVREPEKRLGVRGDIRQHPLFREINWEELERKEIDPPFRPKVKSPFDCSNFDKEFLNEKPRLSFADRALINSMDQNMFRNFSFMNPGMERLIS
`CCOc1ccnc2[nH]c(=O)n(-c3ccc4ncc(CC)n4n3)c12` [Example 12, 7-ethoxy-1-(3-ethylimidazo[1,2b]pyridazin-6-yl)-1,3-dihydro-2H-imidazo[4,5-b]pyridin-2-one]: the “PKC θ inhibitory activity (%, 1 μM)” value is 91%.

The same test, now with this note: 1 μM test compound, well without enzyme = 100% inhibition, read-out: PKC θ inhibitory activity (%, 1 μM).
With `CCOc1ccnc2[nH]c(=O)n(-c3ccc4ncn(C)c4c3)c12` [Example 7, 7-ethoxy-1-(1-methyl-1H-benzimidazol-6-yl)-1,3-dihydro-2H-imidazo[4,5-b]pyridin-2-one], the inhibition at 1 µM came to 100%.
As to `CCOc1ccnc2[nH]c(=O)n(-c3ccc4ncc(CC)n4c3)c12` [Example 11, 7-ethoxy-1-(3-ethylimidazo[1,2-a]pyridin-6-yl)-1,3-dihydro-2H-imidazo[4,5-b]pyridin-2-one], the inhibition at 1 µM was 96%.
For the compound `CCOc1ccnc2[nH]c(=O)n(-c3ccc4ncn(C)c4n3)c12` [Example 13, 7-ethoxy-3′-methyl-3′H-1,5′-biimidazo[4,5-b]pyridin-2(3H)-one], the inhibition at 1 µM amounted to 90%.
In the case of `CCOc1ccnc2[nH]c(=O)n(-c3ccc4occ(C)c4c3)c12` [Example 15, 7-ethoxy-1-(3-methyl-1-benzo-furan-5-yl)-1,3-dihydro-2H-imidazo[4,5-b]pyridin-2-one], the inhibition at 1 µM was found to be 99%.
Turning to `CCOc1ccnc2[nH]c(=O)n(-c3ccn4ncc(CC)c4c3)c12` [Example 17, 7-ethoxy-1-(3-ethylpyrazolo[1,5-a]pyridin-5-yl)-1,3-dihydro-2H-imidazo[4,5-b]pyridin-2-one], the inhibition at 1 µM was 100%.
With `CCOc1ccnc2[nH]c(=O)n(-c3ccc4[nH]nc(C)c4c3)c12` [Example 18, 7-ethoxy-1-(3-methyl-1H-indazol-5-yl)-1,3-dihydro-2H-imidazo[4,5-b]pyridin-2-one], the inhibition at 1 µM was determined as 97%.
With `CCOc1ccnc2[nH]c(=O)n(-c3ccc4nccc(C(N)=O)c4c3)c12` [Example 27, 6-(7-ethoxy-2-oxo-2,3-dihydro-1H-imidazo[4,5-b]pyridin-1-yl)quinoline-4-carboxamide], the inhibition at 1 µM stood at 90%.
`CCOc1ccnc2[nH]c(=O)n(-c3ccc4ncnc(OC)c4c3)c12` [Example 39, 7-ethoxy-1-(4-methoxyquinazolin-6-yl)-1,3-dihydro-2H-imidazo[4,5-b]pyridin-2-one]: the inhibition at 1 µM stood at 102%.
As for `CCOc1ccnc2[nH]c(=O)n(-c3ccc4nccc(OC)c4c3)c12` [Example 41, 7-ethoxy-1-(4-methoxyquinolin-6-yl)-1,3-dihydro-2H-imidazo[4,5-b]pyridin-2-one], the inhibition at 1 µM was 97%.
In the case of `CCOc1ccnc2[nH]c(=O)n(-c3ccc4nccc(OC)c4n3)c12` [Example 55, 7-ethoxy-1-(8-methoxy-1,5-naphthyridin-2-yl)-1,3-dihydro-2H-imidazo[4,5-b]pyridin-2-one], the inhibition at 1 µM was 124%.
As for `CCOc1ccnc2[nH]c(=O)n(-c3ccc4nncc(OC)c4c3)c12` [Example 60, 7-ethoxy-1-(4-methoxycinnolin-6-yl)-1,3-dihydro-2H-imidazo[4,5-b]pyridin-2-one], the inhibition at 1 µM worked out at 101%.
On to `CCOc1ccnc2[nH]c(=O)n(-c3ccc4ncc5c(c4c3)OCCO5)c12` [Example 75, 1-(2,3-dihydro[1,4]-dioxino[2,3-c]quinolin-9-yl)-7-ethoxy-1,3-dihydro-2H-imidazo[4,5-b]pyridin-2-one], for which the inhibition at 1 µM was determined as 101%.
Same read-out and setting: next, `CCOc1ccnc2[nH]c(=O)n(-c3ccc4nccc(N5CCNCC5)c4c3)c12` [Example 92, 7-ethoxy-1-(4-(piperazin-1-yl)quinolin-6-yl)-1,3-dihydro-2H-imidazo[4,5-b]pyridin-2-one]: 102%; `CCOc1cnc2ccc(-n3c(=O)[nH]c4nccc(OCC)c43)cc2n1` [Example 93, 7-ethoxy-1-(3-ethoxyquinoxalin-6-yl)-1,3-dihydro-2H-imidazo[4,5-b]pyridin-2-one]: 94%; `CCOc1ccnc2[nH]c(=O)n(-c3cc4c5c(cnc4cc3F)OCCO5)c12` [Example 94, 7-ethoxy-1-(8-fluoro-2,3-dihydro[1,4]dioxino[2,3-c]quinolin-9-yl)-1,3-dihydro-2H-imidazo[4,5-b]pyridin-2-one]: 101%.
For `CCOc1ccnc2[nH]c(=O)n(-c3ccc4ncc(-c5cnn(C)c5)c(OC)c4c3)c12` [Example 177, 7-ethoxy-1-(4-methoxy-3-(1-methyl-1H-pyrazol-4-yl)quinolin-6-yl)-1,3-dihydro-2H-imidazo[4,5-b]pyridin-2-one], the inhibition at 1 µM stood at 100%.
On the same count and under the same terms, to `CCOc1ccnc2[nH]c(=O)n(-c3ccc4ncc(-c5cn[nH]c5)c(OC)c4c3)c12` [Example 185, 7-ethoxy-1-(4-methoxy-3-(1H-pyrazol-4-yl)quinolin-6-yl)-1,3-dihydro-2H-imidazo[4,5-b]pyridin-2-one] belongs 101%.
Same read-out and setting: next, `COc1cnnc2ccc(-n3c(=O)[nH]c4nccc(OC5CCC5)c43)cc12` [Example 204, 7-(cyclobutyloxy)-1-(4-methoxycinnolin-6-yl)-1,3-dihydro-2H-imidazo[4,5-b]pyridin-2-one]: 101%.
With `CCOc1ccnc2[nH]c(=O)n(-c3ccc4ncc(F)c(OC)c4c3)c12` [Example 230, 7-ethoxy-1-(3-fluoro-4-methoxyquinolin-6-yl)-1,3-dihydro-2H-imidazo[4,5-b]pyridin-2-one], the inhibition at 1 µM amounted to 102%.

(Values after patent publication US20170096422A1, “HETEROCYCLIC COMPOUND” (Takeda Pharmaceutical Company Limited, priority 2014, published 2017).)
